Read-outs that look alike come from different tables or passages of the source.

For this assay, the target named is T1, integrin α4β7 (RPMI8866 human cells adhering to MAdCAM-1) (Homo sapiens, UniProt P13612+P26010).
T1 construct: RMP18866 cells, which express integrin α4β7; host or cells: RPMI8866
T1 sequence (P13612 34-1032): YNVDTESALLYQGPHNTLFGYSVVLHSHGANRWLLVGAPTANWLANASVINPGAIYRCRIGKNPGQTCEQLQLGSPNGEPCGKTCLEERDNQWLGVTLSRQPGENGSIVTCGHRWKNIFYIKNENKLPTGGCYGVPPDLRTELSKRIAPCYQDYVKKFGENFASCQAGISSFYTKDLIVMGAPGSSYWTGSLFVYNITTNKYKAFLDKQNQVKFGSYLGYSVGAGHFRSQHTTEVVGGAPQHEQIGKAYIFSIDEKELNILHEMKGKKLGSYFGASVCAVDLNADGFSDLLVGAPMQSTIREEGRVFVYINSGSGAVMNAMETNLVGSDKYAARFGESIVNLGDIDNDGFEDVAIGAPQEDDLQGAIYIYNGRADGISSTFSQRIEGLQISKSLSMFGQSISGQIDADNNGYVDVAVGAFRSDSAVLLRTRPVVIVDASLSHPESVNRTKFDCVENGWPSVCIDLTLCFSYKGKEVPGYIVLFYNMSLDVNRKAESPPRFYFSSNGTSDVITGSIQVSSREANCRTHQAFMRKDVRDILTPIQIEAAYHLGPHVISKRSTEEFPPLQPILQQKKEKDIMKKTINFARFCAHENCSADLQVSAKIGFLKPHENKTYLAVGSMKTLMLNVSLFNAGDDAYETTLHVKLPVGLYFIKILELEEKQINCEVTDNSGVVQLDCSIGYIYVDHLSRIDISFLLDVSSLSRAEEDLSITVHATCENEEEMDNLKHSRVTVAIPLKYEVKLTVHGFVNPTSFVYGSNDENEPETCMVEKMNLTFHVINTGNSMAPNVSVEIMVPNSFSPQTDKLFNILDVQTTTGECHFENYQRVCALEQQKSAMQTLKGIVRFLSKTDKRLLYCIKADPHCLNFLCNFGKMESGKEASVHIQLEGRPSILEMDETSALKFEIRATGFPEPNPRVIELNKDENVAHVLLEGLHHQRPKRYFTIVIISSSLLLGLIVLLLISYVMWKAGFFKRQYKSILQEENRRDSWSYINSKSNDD
T1 sequence (P26010 20-798): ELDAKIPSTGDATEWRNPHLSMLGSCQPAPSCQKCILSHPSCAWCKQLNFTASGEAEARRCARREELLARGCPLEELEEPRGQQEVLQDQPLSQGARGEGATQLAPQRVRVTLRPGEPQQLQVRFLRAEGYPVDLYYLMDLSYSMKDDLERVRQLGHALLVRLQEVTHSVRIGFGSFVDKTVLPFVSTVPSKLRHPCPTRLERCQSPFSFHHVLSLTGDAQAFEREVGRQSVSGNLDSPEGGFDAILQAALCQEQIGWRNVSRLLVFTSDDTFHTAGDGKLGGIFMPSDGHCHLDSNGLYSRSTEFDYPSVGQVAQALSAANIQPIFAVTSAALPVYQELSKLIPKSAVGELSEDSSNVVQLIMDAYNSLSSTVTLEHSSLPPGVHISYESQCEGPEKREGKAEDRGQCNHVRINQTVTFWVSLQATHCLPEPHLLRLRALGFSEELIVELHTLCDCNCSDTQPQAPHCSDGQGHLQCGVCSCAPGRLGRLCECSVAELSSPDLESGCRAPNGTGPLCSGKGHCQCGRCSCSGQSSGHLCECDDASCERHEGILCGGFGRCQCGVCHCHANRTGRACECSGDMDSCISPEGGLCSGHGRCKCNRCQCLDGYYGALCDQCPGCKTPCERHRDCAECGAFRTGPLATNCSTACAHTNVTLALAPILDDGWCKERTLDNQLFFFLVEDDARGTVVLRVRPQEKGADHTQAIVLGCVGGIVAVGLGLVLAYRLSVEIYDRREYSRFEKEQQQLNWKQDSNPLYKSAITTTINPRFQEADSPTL
Description: Integrin α4β7-MAdCAM cell adhesion assay (RPMI8866 cells). It counts as cell-based. The gist of the method:
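RPMI8866 cells were loaded with […] calcein in PBS for 30 min at 37° C. After plate washes with PBS, fluorescence of adherent cells was read, and no-cell control wells were subtracted from each test well to build the dose response.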

[1] abbreviates: RPMI8866 cells adhering to MAdCAM, read-out: RPMI8866 Adhesion α4β7/MAdCAM IC50.

As to `CC(C)C[C@@H]1NC(=O)c2ccc(-c3ccc(N4CCN(CC(=O)N5CCN(c6ccc(-c7ccc8cc7CNC(=O)[C@@H]7CCCN7[C@H](C(=O)NC(C)(C)C)[C@H](C)NC(=O)[C@H]([C@@H](C)O)NC(=O)[C@H](CC(=O)O)NC(=O)[C@H](CC(C)C)NC8=O)cc6)CC5)CC4)cc3)c(c2)CNC(=O)[C@@H]2CCCN2[C@H](C(=O)NC(C)(C)C)[C@H](C)NC(=O)[C@H]([C@@H](C)O)NC(=O)[C@H](CC(=O)O)NC1=O` [Compound 481], the IC50 under setting [1] worked out at 36 nM.

In the case of `CC(C)C[C@@H]1NC(=O)c2ccc(-c3ccc(N4CCN(CCC(=O)N5CCN(c6ccc(-c7ccc8cc7CNC(=O)[C@@H]7CCCN7[C@H](C(=O)NC(C)(C)C)[C@H](C)NC(=O)[C@H]([C@@H](C)O)NC(=O)[C@H](CC(=O)O)NC(=O)[C@H](CC(C)C)NC8=O)cc6)CC5)CC4)cc3)c(c2)CNC(=O)[C@@H]2CCCN2[C@H](C(=O)NC(C)(C)C)[C@H](C)NC(=O)[C@H]([C@@H](C)O)NC(=O)[C@H](CC(=O)O)NC1=O` [Compound 482], the IC50 under setting [1] came out at 26 nM.

Take `CC(C)C[C@@H]1NC(=O)c2ccc(-c3ccc(N4CCN(C(=O)CCC(=O)N5CCN(c6ccc(-c7ccc8cc7CNC(=O)[C@@H]7CCCN7[C@H](C(=O)NC(C)(C)C)[C@H](C)NC(=O)[C@H]([C@@H](C)O)NC(=O)[C@H](CC(=O)O)NC(=O)[C@H](CC(C)C)NC8=O)cc6)CC5)CC4)cc3)c(c2)CNC(=O)[C@@H]2CCCN2[C@H](C(=O)NC(C)(C)C)[C@H](C)NC(=O)[C@H]([C@@H](C)O)NC(=O)[C@H](CC(=O)O)NC1=O` [Compound 484]: the IC50 under setting [1] is 14 nM. With `CC(C)C[C@@H]1NC(=O)c2ccc(-c3ccc(N4CCN(C(=O)C[C@@H](N)C(=O)N5CCN(c6ccc(-c7ccc8cc7CNC(=O)[C@@H]7CCCN7[C@H](C(=O)NC(C)(C)C)[C@H](C)NC(=O)[C@H]([C@@H](C)O)NC(=O)[C@H](CC(=O)O)NC(=O)[C@H](CC(C)C)NC8=O)cc6)CC5)CC4)cc3)c(c2)CNC(=O)[C@@H]2CCCN2[C@H](C(=O)NC(C)(C)C)[C@H](C)NC(=O)[C@H]([C@@H](C)O)NC(=O)[C@H](CC(=O)O)NC1=O` [Compound 493], under setting [1], the IC50 was found to be 45 nM. The same measure, in the same setting: the result for `CC(C)C[C@@H]1NC(=O)c2ccc(-c3ccc(N4CCN(C(=O)CC[C@H](N)C(=O)N5CCN(c6ccc(-c7ccc8cc7CNC(=O)[C@@H]7CCCN7[C@H](C(=O)NC(C)(C)C)[C@H](C)NC(=O)[C@H]([C@@H](C)O)NC(=O)[C@H](CC(=O)O)NC(=O)[C@H](CC(C)C)NC8=O)cc6)CC5)CC4)cc3)c(c2)CNC(=O)[C@@H]2CCCN2[C@H](C(=O)NC(C)(C)C)[C@H](C)NC(=O)[C@H]([C@@H](C)O)NC(=O)[C@H](CC(=O)O)NC1=O` [Compound 494] reads 50 nM; that for `CC(C)C[C@@H]1NC(=O)c2ccc(-c3ccc(N4CCN(C(=O)[C@H](CCCCNC(=O)CCCCCC(=O)NCCCC[C@H](NC(=O)OCc5ccccc5)C(=O)N5CCN(c6ccc(-c7ccc8cc7CNC(=O)[C@@H]7CCCN7[C@H](C(=O)NC(C)(C)C)[C@H](C)NC(=O)[C@H]([C@@H](C)O)NC(=O)[C@H](CC(=O)O)NC(=O)[C@H](CC(C)C)NC8=O)cc6)CC5)NC(=O)OCc5ccccc5)CC4)cc3)c(c2)CNC(=O)[C@@H]2CCCN2[C@H](C(=O)NC(C)(C)C)[C@H](C)NC(=O)[C@H]([C@@H](C)O)NC(=O)[C@H](CC(=O)O)NC1=O` [Compound 498], 36 nM. Take `CC(C)C[C@@H]1NC(=O)c2ccc(-c3ccc(N4CCN(Cc5cccc(CN6CCN(c7ccc(-c8ccc9cc8CNC(=O)[C@@H]8CCCN8[C@H](C(=O)NC(C)(C)C)[C@H](C)NC(=O)[C@H]([C@@H](C)O)NC(=O)[C@H](CC(=O)O)NC(=O)[C@H](CC(C)C)NC9=O)cc7)CC6)c5)CC4)cc3)c(c2)CNC(=O)[C@@H]2CCCN2[C@H](C(=O)NC(C)(C)C)[C@H](C)NC(=O)[C@H]([C@@H](C)O)NC(=O)[C@H](CC(=O)O)NC1=O` [Compound 499]: the IC50 under setting [1] turned out to be 42 nM.

As for `CC(C)C[C@@H]1NC(=O)c2ccc(-c3ccc(N4CCN(Cc5ccc(CN6CCN(c7ccc(-c8ccc9cc8CNC(=O)[C@@H]8CCCN8[C@H](C(=O)NC(C)(C)C)[C@H](C)NC(=O)[C@H]([C@@H](C)O)NC(=O)[C@H](CC(=O)O)NC(=O)[C@H](CC(C)C)NC9=O)cc7)CC6)cc5)CC4)cc3)c(c2)CNC(=O)[C@@H]2CCCN2[C@H](C(=O)NC(C)(C)C)[C@H](C)NC(=O)[C@H]([C@@H](C)O)NC(=O)[C@H](CC(=O)O)NC1=O` [Compound 500], the IC50 under setting [1] came out at 32 nM. As for `CC(C)C[C@@H]1NC(=O)c2ccc(-c3ccc(N4CCN(C(=O)CCOCCOCCNC(=O)CCCCCC(=O)NCCOCCOCCC(=O)N5CCN(c6ccc(-c7ccc8cc7CNC(=O)[C@@H]7CCCN7[C@H](C(=O)NC(C)(C)C)[C@H](C)NC(=O)[C@H]([C@@H](C)O)NC(=O)[C@H](CC(=O)O)NC(=O)[C@H](CC(C)C)NC8=O)cc6)CC5)CC4)cc3)c(c2)CNC(=O)[C@@H]2CCCN2[C@H](C(=O)NC(C)(C)C)[C@H](C)NC(=O)[C@H]([C@@H](C)O)NC(=O)[C@H](CC(=O)O)NC1=O` [Compound 505], under setting [1], the IC50 was determined as 59 nM.

`CC(C)C[C@@H]1NC(=O)c2ccc(-c3ccc(N4CCN(C(=O)CCOCCOCCOCCOCCOCCOCCOCCOCCOCCOCCC(=O)N5CCN(c6ccc(-c7ccc8cc7CNC(=O)[C@@H]7CCCN7[C@H](C(=O)NC(C)(C)C)[C@H](C)NC(=O)[C@H]([C@@H](C)O)NC(=O)[C@H](CC(=O)O)NC(=O)[C@H](CC(C)C)NC8=O)cc6)CC5)CC4)cc3)c(c2)CNC(=O)[C@@H]2CCCN2[C@H](C(=O)NC(C)(C)C)[C@H](C)NC(=O)[C@H]([C@@H](C)O)NC(=O)[C@H](CC(=O)O)NC1=O` [Compound 511]: the IC50 under setting [1] is 30 nM. Turning to `CC(C)C[C@@H]1NC(=O)c2ccc(-c3ccc(N4CCN(C(=O)c5ccccc5-c5ccccc5C(=O)N5CCN(c6ccc(-c7ccc8cc7CNC(=O)[C@@H]7CCCN7[C@H](C(=O)NC(C)(C)C)[C@H](C)NC(=O)[C@H]([C@@H](C)O)NC(=O)[C@H](CC(=O)O)NC(=O)[C@H](CC(C)C)NC8=O)cc6)CC5)CC4)cc3)c(c2)CNC(=O)[C@@H]2CCCN2[C@H](C(=O)NC(C)(C)C)[C@H](C)NC(=O)[C@H]([C@@H](C)O)NC(=O)[C@H](CC(=O)O)NC1=O` [Compound 517], the IC50 by setting is: under setting [1], 10 nM; (RPMI8866 cells, read-out: IC50 in the RPMI8866 cell adhesion assay) 9.9 nM. In the case of `CC(C)C[C@@H]1NC(=O)c2ccc(-c3ccc(N4CCN(Cc5cc(CN6CCN(c7ccc(-c8ccc9cc8CNC(=O)[C@@H]8CCCN8[C@H](C(=O)NC(C)(C)C)[C@H](C)NC(=O)[C@H]([C@@H](C)O)NC(=O)[C@H](CC(=O)O)NC(=O)[C@H](CC(C)C)NC9=O)cc7)CC6)cc(CN6CCN(c7ccc(-c8ccc9cc8CNC(=O)[C@@H]8CCCN8[C@H](C(=O)NC(C)(C)C)[C@H](C)NC(=O)[C@H]([C@@H](C)O)NC(=O)[C@H](CC(=O)O)NC(=O)[C@H](CC(C)C)NC9=O)cc7)CC6)c5)CC4)cc3)c(c2)CNC(=O)[C@@H]2CCCN2[C@H](C(=O)NC(C)(C)C)[C@H](C)NC(=O)[C@H]([C@@H](C)O)NC(=O)[C@H](CC(=O)O)NC1=O` [Compound 518], the IC50 under setting [1] turned out to be 18 nM.

The values above are taken from US11713338B2, “Cyclic peptides multimers targeting α-4-β-7 integrin” (priority 2016, dated 2023).
